Measurements published in article PMC8443647, “Hybrid derivative of cathelicidin and human beta defensin-2 against Gram-positive bacteria: A novel approach for the treatment of bacterial keratitis” (Scientific Reports, 2021).
Converted amounts (≈) assume the structure as drawn. Like-named read-outs stand apart in the source and are kept apart here. Peptide text beside a SMILES is read from it.

How the values were obtained:
MRSA-OS = assay: microbe, parasite or virus in culture; format: cell-based, Staphylococcus aureus; details: 24 h
Excerpt: (§1) A range of Gram-positive and Gram-negative laboratory- and clinical-strain bacteria were used for the experiments. These included laboratory-strain methicillin-sensitive S. aureus (MSSA; including SH1000 and ATCC SA29213), laboratory-strain MRSA (ATCC MRSA43300), clinical-strain MRSA (MRSA-OS; an IK isolate), laboratory-strain methicillin-sensitive Staphylococcus epidermidis (MSSE; ATCC SE12228), laboratory invasive-strain P. aeruginosa (PAO1-L), and clinical cytotoxic-strain P. aeruginosa (PA-OS; an IK isolate).
(§2) In vitro antimicrobial efficacy of the antibiotics and designed HDPs was determined using an established MIC assay with broth microdilution method approved by the Clinical and Laboratory Standards Institute (CLSI)[64]. Briefly, the microorganisms were cultured on Tryptone Soya Agar (TSA) and incubated overnight for 18–21 h at 37 °C. Bacterial inoculums were subsequently prepared using the direct colony suspension method. Three to five bacterial colonies were obtained from the agar plate and inoculated into an Eppendorf tube containing 1 ml of cation-adjusted Muller-Hinton broth (caMHB), consisting of 20–25 mg/L calcium ions (Ca^2+) and 10–12.5 mg/L magnesium ions (Mg^2+). The bacterial suspension was adjusted to achieve a turbidity equivalent to 0.1 OD600 or 0.5 MacFarland, containing ~ 1.5 × 10^8 colony-forming unit (CFU)/ml, which was then further diluted in 1:150 in caMHB to reach a final bacterial concentration of ~ 1 × 10^6 colony forming units (CFU)/ml. Each treatment (peptide or antibiotic) was prepared in 1:2 serial dilution in 96-well polypropylene microplates (with a final treatment volume of 50 μl per well), followed by the addition of 50 μl of 1 × 10^6 CFU/ml bacteria into each well (with a final bacterial concentration of 5 × 10^5 CFU/ml).

S. aureus SH1000 = assay: microbe, parasite or virus in culture; format: cell-based, Staphylococcus aureus
Excerpt: as §1, §2

P. aeruginosa PA-OS = assay: microbe, parasite or virus in culture; format: cell-based; details: PA-OS, 24 h
Excerpt: as §1, §2

[1] = tested on: human corneal epithelial cells (HCE-2); assay: cells; format: cell-based; details: 3 h
Description: Cell viability and cytotoxicity of antibiotics and peptides were determined against human corneal epithelial cells (HCE-2, CRL-11135, ATCC, Manassas, Virginia, USA) using cell-counting-kit-8 (CCK-8) assay (Sigma Aldrich, Merck Life Science UK Limited, Dorset, UK) and lactate dehydrogenase (LDH) assay (ThermoFisher Scientific, UK), respectively, as per manufacturer’s guidelines. HCE-2 cells were cultured and seeded into a 96-well plate at a density of 7.5 × 10^3 cells/well and allowed to attach overnight and grew to 80–90% confluency in keratinocyte serum free medium (KSFM) supplemented with human recombinant epidermal growth factor, bovine pituitary extract, hydrocortisone, and insulin. Once the confluency reached 80–90%, the cells were incubated with treatment for 3 h before OD450 measurement was taken using BMG Clariostar microplate reader (BMG Labtech Ltd., Aylesbury, UK). Appropriate controls were used, including 0.1% Triton X-100 as positive control and KSFM as negative control. Cell viability was calculated using the following formula: [([…]) × 100; I = intensity] and cytotoxicity was calculated using the following formula: [((Itreatment – INC)/(IPC – INC)) × 100].

P. aeruginosa PAO1-L = assay: microbe, parasite or virus in culture; format: cell-based
Excerpt: as §1, §2

[2] = 0 mM NaCl, caMHB, read-out: MIC
[3] = 0 mM NaCl, caMHB, 24 h, read-out: MIC

Row | SMILES | MIC (MRSA-OS; -OS) [µg/mL] | MIC (S. aureus SH1000; SH1000, 24 h) [µg/mL] | MIC (P. aeruginosa PA-OS) [µg/mL] | IC50 (concentration causing 50% inhibition of cell viability) [1] [µg/mL] | MIC (P. aeruginosa PAO1-L; PAO1, 24 h) [µg/mL] | MIC (MRSA-OS; [2]) [µM] | MIC (S. aureus SH1000; [3]) [µM] | MIC (P. aeruginosa PAO1-L; [3]) [µM]
1 | CC[C@H](C)[C@H](NC(=O)[C@H](CCCNC(=N)N)NC(=O)[C@H](CCC(N)=O)NC(=O)[C@@H](NC(=O)[C@@H](NC(=O)[C@H](CCCNC(=N)N)NC(=O)[C@@H](N)CCCCN)[C@@H](C)CC)C(C)C)C(=O)N[C@@H](CCCCN)C(=O)N[C@@H](CC(=O)O)C(=O)N[C@@H](Cc1ccccc1)C(=O)N[C@@H](CC(C)C)C(=O)N[C@@H](CCCNC(=N)N)C(=O)N[C@@H](CCCCN)C(=O)N[C@@H](C)C(=O)N[C@@H](CS)C(=O)N[C@@H](CCCCN)C(=O)N[C@@H](CCCCN)C(=O)N1CCC[C@H]1C(=O)O [CaD21, KRIVQRIKDF LRKACKKP] (H-KRIVQRIKDFLRKACKKP-OH; N-terminus and C-terminus assumed) | > 200 | 200 | 200 (≈ 89.8 µM) | > 200 |  |  |  | 
2 | CC[C@H](C)[C@H](NC(=O)[C@H](CCCNC(=N)N)NC(=O)[C@H](CCC(N)=O)NC(=O)[C@@H](NC(=O)[C@@H](NC(=O)[C@H](CCCNC(=N)N)NC(=O)[C@@H](N)CCCCN)[C@@H](C)CC)C(C)C)C(=O)N[C@@H](CCCCN)C(=O)N[C@@H](CC(=O)O)C(=O)N[C@@H](Cc1ccccc1)C(=O)N[C@@H](CC(C)C)C(=O)N[C@@H](CCCNC(=N)N)C(=O)O [Ca12, KRIVQRIKDF LR] (H-KRIVQRIKDFLR-OH; N-terminus and C-terminus assumed) | > 200 | > 200 |  |  | 200 |  |  | 
3 | NCCCC[C@H](NC(=O)[C@H](CS)NC(=O)[C@H](CS)NC(=O)[C@@H](N)CCCCN)C(=O)N[C@@H](CCCCN)C(=O)N1CCC[C@H]1C(=O)O [BD2-6, KCCKKP] (H-KCCKKP-OH; N-terminus and C-terminus assumed) | > 200 | > 200 |  |  | > 200 | > 283.3 | > 283.3 | > 283.3
4 | CC[C@H](C)[C@H](NC(=O)[C@@H](N)CCCNC(=N)N)C(=O)N[C@@H](CCCCN)C(=O)N[C@@H](CC(=O)O)C(=O)N[C@@H](Cc1ccccc1)C(=O)N[C@@H](CC(C)C)C(=O)N[C@@H](CCCNC(=N)N)C(=O)N[C@@H](CC(N)=O)C(=O)NCC(=O)N[C@@H](CCCNC(=N)N)C(=O)N[C@@H](CCCCN)C(=O)N[C@@H](CS)C(=O)N[C@@H](CS)C(=O)N[C@@H](CCCNC(=N)N)C(=O)N[C@@H](CCCNC(=N)N)C(=O)N[C@@H](CCCCN)C(=O)N[C@@H](CCCCN)C(=O)O [CaD3, RIKDFLRNGR KCCRRKK] (H-RIKDFLRNGRKCCRRKK-OH; N-terminus and C-terminus assumed) | > 200 | > 200 |  |  | > 200 | > 91.8 | > 91.8 | > 91.8
5 | C[C@H](NC(=O)[C@H](CCCCN)NC(=O)CNC(=O)[C@@H](N)CCCNC(=N)N)C(=O)N[C@@H](CCCCN)C(=O)N[C@@H](CS)C(=O)N[C@@H](CS)C(=O)N[C@@H](CCCCN)C(=O)NCC(=O)N[C@H](C(=O)N[C@@H](CCCCN)C(=O)N[C@@H](CS)C(=O)N[C@@H](CS)C(=O)N[C@@H](CCCCN)C(=O)N[C@@H](CCCCN)C(=O)N1CCC[C@H]1C(=O)O)[C@@H](C)O [DD12, RGKAKCCKGT KCCKKP] (H-RGKAKCCKGTKCCKKP-OH; N-terminus and C-terminus assumed) | > 200 | > 200 |  |  | > 200 | > 115 | > 115 | > 115
6 | CC[C@H](C)[C@H](NC(=O)[C@H](CCCNC(=N)N)NC(=O)[C@H](CCC(N)=O)NC(=O)[C@@H](NC(=O)[C@@H](NC(=O)[C@H](CCCNC(=N)N)NC(=O)[C@@H](N)CCCCN)[C@@H](C)CC)C(C)C)C(=O)N[C@@H](CCCCN)C(=O)N[C@@H](CC(=O)O)C(=O)N[C@@H](Cc1ccccc1)C(=O)N[C@@H](CC(C)C)C(=O)N[C@@H](CCCNC(=N)N)C(=O)N[C@@H](CCCNC(=N)N)C(=O)NCC(=O)N[C@@H](CCCCN)C(=O)N[C@@H](C)C(=O)N[C@@H](CCCCN)C(=O)O [CaD1, KRIVQRIKDF LRRGKAK] (H-KRIVQRIKDFLRRGKAK-OH; N-terminus and C-terminus assumed) | > 200 | > 200 |  |  | > 200 |  |  | 
7 | N=C(N)NCCC[C@H](NC(=O)CNC(=O)[C@@H](N)CCCNC(=N)N)C(=O)N[C@@H](CCCCN)C(=O)N[C@@H](CS)C(=O)N[C@@H](CS)C(=O)N[C@@H](CCCNC(=N)N)C(=O)N[C@@H](CCCNC(=N)N)C(=O)N[C@@H](CCCCN)C(=O)N[C@@H](CCCCN)C(=O)O [BD3-10, RGRKCCRRKK] (H-RGRKCCRRKK-OH; N-terminus and C-terminus assumed) | > 200 | > 200 |  |  | > 200 | > 154.9 | > 154.9 | > 154.9
8 | C[C@H](NC(=O)[C@H](CCCCN)NC(=O)CNC(=O)[C@@H](N)CCCNC(=N)N)C(=O)N[C@@H](CCCCN)C(=O)N[C@@H](CS)C(=O)N[C@@H](CS)C(=O)N[C@@H](CCCCN)C(=O)N[C@@H](CCCNC(=N)N)C(=O)NCC(=O)N[C@@H](CCCNC(=N)N)C(=O)N[C@@H](CCCCN)C(=O)N[C@@H](CS)C(=O)N[C@@H](CS)C(=O)N[C@@H](CCCNC(=N)N)C(=O)N[C@@H](CCCNC(=N)N)C(=O)N[C@@H](CCCCN)C(=O)N[C@@H](CCCCN)C(=O)O [DD13, RGKAKCCKRG RKCCRRKK] (H-RGKAKCCKRGRKCCRRKK-OH; N-terminus and C-terminus assumed) | > 200 | > 200 |  |  | > 200 | > 92.3 | > 92.3 | > 92.3
9 | N=C(N)NCCC[C@H](NC(=O)CNC(=O)[C@@H](N)CCCNC(=N)N)C(=O)N[C@@H](CCCCN)C(=O)N[C@@H](CS)C(=O)N[C@@H](CS)C(=O)N[C@@H](CCCNC(=N)N)C(=O)N[C@@H](CCCNC(=N)N)C(=O)N[C@@H](CCCCN)C(=O)N[C@@H](CCCCN)C(=O)N[C@@H](CCCCN)C(=O)N[C@@H](CS)C(=O)N[C@@H](CS)C(=O)N[C@@H](CCCCN)C(=O)N[C@@H](CCCCN)C(=O)N1CCC[C@H]1C(=O)O [DD32, RGRKCCRRKK KCCKKP] (H-RGRKCCRRKKKCCKKP-OH; N-terminus and C-terminus assumed) |  | > 200 |  |  | > 200 | > 101 | > 101 | > 101
